Starred links: 1 amine or outer side, 2 acyl side, 3 side chain; linkers in the order of their positions; H or OH if unused. Positions of bridges follow the written chain, without caps; N, C: chain ends. Non-standard residues stand in square brackets, D forms with d. Residues, ends and D or L forms follow the SMILES beside them. *: point of attachment. Bip(4'-NHCO-C6H4-4-CH2COOH) = N[C@@H](Cc1ccc(-c2ccc(NC(=O)c3ccc(CC(=O)O)cc3)cc2)cc1)C(=O)O; X56 = O=C(O)COc1cccc(NC(=O)c2ccc(-c3ccc(C[C@H](N[*:1])C(=O)[*:2])cc3)cc2)c1; X46 = O=C(Cc1cccc(C(=O)O)c1)Nc1ccc(-c2ccc(C[C@H](N[*:1])C(=O)[*:2])cc2)cc1; X5 = Cn1nc(C(=O)Nc2ccc(-c3ccc(C[C@H](N[*:1])C(=O)[*:2])cc3)cc2)c2ccccc21; Bip(4'-NH) = O=C([C@H](Cc1ccc(-c2ccc(N[*:3])cc2)cc1)N[*:1])[*:2]; dArg(ω-(3-HO-benzyl)) = N=C(NCCC[C@@H](N)C(=O)O)NCc1cccc(O)c1; Indazole3carbonyl(1-CH2COOH) = O=C(O)Cn1nc(C(=O)*)c2ccccc21; X54 = N=C(NCCC[C@@H](N[*:1])C(=O)[*:2])NCc1cccc(-n2ccnc2)c1; Bip(4'-COOH) = N[C@@H](Cc1ccc(-c2ccc(C(=O)O)cc2)cc1)C(=O)O; Bip(4'-NHAc) = CC(=O)Nc1ccc(-c2ccc(C[C@H](N)C(=O)O)cc2)cc1; Ala(imidazol-2-yl) = N[C@@H](Cc1ncc[nH]1)C(=O)O; Ala(morpholin-4-yl) = N[C@@H](CN1CCOCC1)C(=O)O; Benzoyl(3-OCH2COOH) = O=C(O)COc1cccc(C(=O)*)c1; Phe(3-CONH2) = NC(=O)c1cccc(C[C@H](N)C(=O)O)c1; Phe(4-CH2NH2) = NCc1ccc(C[C@H](N)C(=O)O)cc1; Bip = N[C@@H](Cc1ccc(-c2ccccc2)cc1)C(=O)O; Phe(4-F) = N[C@@H](Cc1ccc(F)cc1)C(=O)O; Val(3-OH) = CC(C)(O)[C@H](N)C(=O)O; X75 = O=C(O)Cn1ccc2c(C(=O)*)cccc21; Hyp = O=C(O)[C@@H]1C[C@@H](O)CN1; Tic = O=C(O)[C@@H]1Cc2ccccc2CN1; Cha = N[C@@H](CC1CCCCC1)C(=O)O; Aze = O=C(O)[C@@H]1CCN1; Sar = CNCC(=O)O
target: TNFα (Homo sapiens, UniProt P01375); assay: TNF-Induced HEK-Blue Assay; type: cell-based; conditions: not given
Sequence (P01375 77-233 limits assumed): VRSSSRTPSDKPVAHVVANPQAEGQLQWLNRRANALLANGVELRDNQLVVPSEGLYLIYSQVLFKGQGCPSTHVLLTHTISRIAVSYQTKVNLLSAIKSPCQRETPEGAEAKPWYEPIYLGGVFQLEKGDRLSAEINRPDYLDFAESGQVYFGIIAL

Structure (SMILES)	IC50
CC[C@H](C)[C@@H]1NC(=O)[C@@H](CCCNC(=N)NCc2cccc(O)c2)NC(=O)[C@H](CC(=O)O)NC(=O)[C@@H]2CCCN2C(=O)CN(C)C(=O)[C@H](Cc2ccc(-c3ccc(NC(=O)c4nn(CC(=O)O)c5ccccc45)cc3)cc2)NC(=O)[C@H](Cc2ccc(-c3ccccc3)cc2)NC(=O)[C@H](CN2CCOCC2)NC(=O)CSC[C@@H](C(=O)NCC(N)=O)NC(=O)[C@H](CC(C)C)NC(=O)[C@H](Cc2cnc[nH]2)NC(=O)[C@H](C(C)C)NC(=O)[C@@H]2CCCN2C1=O [Example 637] ({CH2CO}-[Ala(morpholin-4-yl)][Bip][Bip(4'-NH)](Indazole3carbonyl(1-CH2COOH))[Sar]PD[dArg(ω-(3-HO-benzyl))]IPVHLCG-NH2; thioether N-13)	< 50 nM

same assay, conditions: HEK-Blue-CD40L cells, NF-kB-driven secreted alkaline phosphatase reporter; TNFα 0.5 ng/ml; 18 h; read-out: TNF induced HEK-Blue assay IC50 value

IC50	Structure (SMILES)
< 50 nM	CC(C)C[C@@H]1NC(=O)[C@H](CCCNC(=N)N)NC(=O)[C@H](C(C)C)NC(=O)[C@@H]2CCCN2C(=O)[C@H](C(C)C)NC(=O)[C@@H](CCCNC(=N)NCc2cccc(O)c2)NC(=O)[C@H](CC(=O)O)NC(=O)[C@@H]2CCCN2C(=O)CN(C)C(=O)[C@H](Cc2ccc(-c3ccc(NC(=O)c4ccc(CC(=O)O)cc4)cc3)cc2)NC(=O)[C@H](Cc2ccc(-c3ccccc3)cc2)NC(=O)[C@H](CN2CCOCC2)NC(=O)CSC[C@@H](C(=O)NCC(N)=O)NC1=O [Example 567] ({CH2CO}-[Ala(morpholin-4-yl)][Bip][Bip(4'-NHCO-C6H4-4-CH2COOH)][Sar]PD[dArg(ω-(3-HO-benzyl))]VPVRLCG-NH2; thioether N-13)
200 to 2000 nM	CC(C)C[C@@H]1NC(=O)[C@H](CCCNC(=N)N)NC(=O)[C@H](C(C)C)NC(=O)[C@@H]2CCCN2C(=O)[C@H](Cc2ccc(F)cc2)NC(=O)[C@H](CCCNC(=N)N)NC(=O)[C@H](CC(=O)O)NC(=O)[C@@H]2CCCN2C(=O)CN(C)C(=O)[C@H](Cc2ccc(-c3ccccc3)cc2)NC(=O)[C@H](Cc2ccc(-c3ccccc3)cc2)NC(=O)[C@H](CN2CCOCC2)NC(=O)CSC[C@@H](C(=O)NCC(N)=O)NC1=O [Example 52] ({CH2CO}-[Ala(morpholin-4-yl)][Bip][Bip][Sar]PDR[Phe(4-F)]PVRLCG-NH2; thioether N-13)
200 to 2000 nM	CC(C)C[C@@H]1NC(=O)[C@H](CCCNC(=N)N)NC(=O)[C@H](C(C)C)NC(=O)[C@@H]2CCCN2C(=O)[C@H](Cc2ccc(CN)cc2)NC(=O)[C@H](CCCNC(=N)N)NC(=O)[C@H](CC(=O)O)NC(=O)[C@@H]2CCCN2C(=O)CN(C)C(=O)[C@H](Cc2ccc(-c3ccccc3)cc2)NC(=O)[C@H](Cc2ccc(-c3ccccc3)cc2)NC(=O)[C@H](Cc2ccccc2)NC(=O)CSC[C@@H](C(=O)NCC(N)=O)NC1=O [Example 22] ({CH2CO}-F[Bip][Bip][Sar]PDR[Phe(4-CH2NH2)]PVRLCG-NH2; thioether N-13)
200 to 2000 nM	CC(=O)Nc1ccc(-c2ccc(C[C@@H]3NC(=O)[C@H](Cc4ccc(-c5ccccc5)cc4)NC(=O)[C@H](Cc4ccccc4)NC(=O)CSC[C@@H](C(=O)NCC(N)=O)NC(=O)[C@H](CC(C)C)NC(=O)[C@H](CCCNC(=N)N)NC(=O)[C@H](C(C)C)NC(=O)[C@@H]4CCCN4C(=O)[C@H](C(C)C)NC(=O)[C@H](CCCNC(=N)N)NC(=O)[C@H](CC(=O)O)NC(=O)[C@@H]4CCCN4C(=O)CN(C)C3=O)cc2)cc1 [Example 37] ({CH2CO}-F[Bip][Bip(4'-NHAc)][Sar]PDRVPVRLCG-NH2; thioether N-13)
< 50 nM	CC(=O)Nc1ccc(-c2ccc(C[C@@H]3NC(=O)[C@H](Cc4ccc(-c5ccccc5)cc4)NC(=O)[C@H](CN4CCOCC4)NC(=O)CSC[C@@H](C(=O)NCC(N)=O)NC(=O)[C@H](CC(C)C)NC(=O)[C@H](Cc4cnc[nH]4)NC(=O)[C@H](C(C)C)NC(=O)[C@@H]4CCN4C(=O)[C@H](C(C)C)NC(=O)[C@@H](CCCNC(=N)N)NC(=O)[C@H](CC(=O)O)NC(=O)[C@H](Cc4ccc(O)cc4)NC(=O)CN(C)C3=O)cc2)cc1 [Example 273] ({CH2CO}-[Ala(morpholin-4-yl)][Bip][Bip(4'-NHAc)][Sar]YD[dR]V[Aze]VHLCG-NH2; thioether N-13)
< 50 nM	CC(C)C[C@@H]1NC(=O)[C@H](CCCNC(=N)N)NC(=O)[C@H](C(C)C)NC(=O)[C@@H]2CCCN2C(=O)[C@H](C(C)C)NC(=O)[C@@H](CCCNC(=N)N)NC(=O)[C@H](CC(=O)O)NC(=O)[C@@H]2CCCN2C(=O)CN(C)C(=O)[C@H](Cc2ccc(-c3ccc(NC(=O)c4cccc5c4ccn5CC(=O)O)cc3)cc2)NC(=O)[C@H](Cc2ccc(-c3ccccc3)cc2)NC(=O)[C@H](CN2CCOCC2)NC(=O)CSC[C@@H](C(=O)NCC(N)=O)NC1=O [Example 382] ({CH2CO}-[Ala(morpholin-4-yl)][Bip][Bip(4'-NH)](X75)[Sar]PD[dR]VPVRLCG-NH2; thioether N-13)
50 to 200 nM	CC(C)[C@@H]1NC(=O)[C@H](CCCNC(=N)N)NC(=O)[C@H](C(C)C)NC(=O)[C@@H]2CCCN2C(=O)[C@H](C(C)C)NC(=O)[C@H](CCCNC(=N)N)NC(=O)[C@H](CC(=O)O)NC(=O)[C@@H]2CCCN2C(=O)CN(C)C(=O)[C@H](Cc2ccc(-c3ccc(C(=O)O)cc3)cc2)NC(=O)[C@H](Cc2ccc(-c3ccccc3)cc2)NC(=O)[C@H](CN2CCOCC2)NC(=O)CSC[C@@H](C(=O)NCC(N)=O)NC1=O [Example 90] ({CH2CO}-[Ala(morpholin-4-yl)][Bip][Bip(4'-COOH)][Sar]PDRVPVRVCG-NH2; thioether N-13)

The remaining lines, values behind:

Structure (SMILES)	IC50
CC[C@H](C)[C@@H]1NC(=O)[C@@H](CCCNC(=N)N)NC(=O)[C@H](CC(=O)O)NC(=O)[C@@H]2CCCN2C(=O)CN(C)C(=O)[C@H](Cc2ccc(-c3ccc(NC(=O)c4cccc(OCC(=O)O)c4)cc3)cc2)NC(=O)[C@H](Cc2ccc(-c3ccc(C(=O)O)cc3)cc2)NC(=O)[C@H](CC2CCCCC2)NC(=O)CSC[C@@H](C(=O)NCC(N)=O)NC(=O)[C@H](CC(C)C)NC(=O)[C@H](Cc2cnc[nH]2)NC(=O)[C@H](C(C)C)NC(=O)[C@@H]2CCCN2C1=O [Example 573] ({CH2CO}-[Cha][Bip(4'-COOH)][Bip(4'-NH)](Benzoyl(3-OCH2COOH))[Sar]PD[dR]IPVHLCG-NH2; thioether N-13)	50 to 200 nM
CC(C)C[C@@H]1NC(=O)[C@H](CCCNC(=N)N)NC(=O)[C@H](C(C)C)NC(=O)[C@@H]2CCCN2C(=O)[C@H](Cc2ccc(F)cc2)NC(=O)[C@H](CCCNC(=N)N)NC(=O)[C@H](CC(=O)O)NC(=O)[C@@H]2CCCN2C(=O)CN(C)C(=O)[C@H](Cc2ccc(-c3ccccc3)cc2)NC(=O)[C@H](Cc2ccc(-c3ccccc3)cc2)NC(=O)[C@H](C(C)(C)O)NC(=O)CSC[C@@H](C(=O)NCC(N)=O)NC1=O [Example 58] ({CH2CO}-[Val(3-OH)][Bip][Bip][Sar]PDR[Phe(4-F)]PVRLCG-NH2; thioether N-13)	50 to 200 nM
CC(C)C[C@@H]1NC(=O)[C@H](CCCNC(=N)N)NC(=O)[C@H](C(C)C)NC(=O)[C@@H]2CCCN2C(=O)[C@H](C(C)C)NC(=O)[C@@H](CCCNC(=N)NCc2cccc(-n3ccnc3)c2)NC(=O)[C@H](CC(=O)O)NC(=O)[C@@H]2CCCN2C(=O)CN(C)C(=O)[C@H](Cc2ccc(-c3ccc(NC(=O)c4nn(C)c5ccccc45)cc3)cc2)NC(=O)[C@H](Cc2ccc(-c3ccccc3)cc2)NC(=O)[C@H](CN2CCOCC2)NC(=O)CSC[C@@H](C(=O)NCC(N)=O)NC1=O [Example 474] ({CH2CO}-[Ala(morpholin-4-yl)][Bip][X5][Sar]PD[X54]VPVRLCG-NH2; thioether N-13)	50 to 200 nM
CC[C@H](C)[C@@H]1NC(=O)[C@@H](CCCNC(=N)N)NC(=O)[C@H](CC(=O)O)NC(=O)[C@H](Cc2cnc[nH]2)NC(=O)CN(C)C(=O)[C@H](Cc2ccc(-c3ccc(NC(=O)Cc4cccc(C(=O)O)c4)cc3)cc2)NC(=O)[C@H](Cc2ccc(-c3ccccc3)cc2)NC(=O)[C@H](CC2CCCCC2)NC(=O)CSC[C@@H](C(=O)NCC(N)=O)NC(=O)[C@H](CC(C)C)NC(=O)[C@H](Cc2cnc[nH]2)NC(=O)[C@H](C(C)C)NC(=O)[C@@H]2CCCN2C1=O [Example 328] ({CH2CO}-[Cha][Bip][X46][Sar]HD[dR]IPVHLCG-NH2; thioether N-13)	50 to 200 nM
CC(C)C[C@@H]1NC(=O)[C@H](CCCNC(=N)N)NC(=O)[C@H](C(C)C)NC(=O)[C@@H]2C[C@@H](O)CN2C(=O)[C@H](C(C)C)NC(=O)[C@H](CCCNC(=N)N)NC(=O)[C@H](CC(=O)O)NC(=O)[C@@H]2CCCN2C(=O)CN(C)C(=O)[C@H](Cc2ccc(-c3ccccc3)cc2)NC(=O)[C@H](Cc2ccc(-c3ccccc3)cc2)NC(=O)[C@H](Cc2ccccc2)NC(=O)CSC[C@@H](C(=O)NCC(N)=O)NC1=O [Example 39] ({CH2CO}-F[Bip][Bip][Sar]PDRV[Hyp]VRLCG-NH2; thioether N-13)	200 to 2000 nM
CC[C@H](C)[C@@H]1NC(=O)[C@@H](CCCNC(=N)N)NC(=O)[C@H](CC(=O)O)NC(=O)[C@H](Cc2cnc[nH]2)NC(=O)CN(C)C(=O)[C@H](Cc2ccc(-c3ccc(C(=O)Nc4cccc(OCC(=O)O)c4)cc3)cc2)NC(=O)[C@H](Cc2ccc(-c3ccc(C(=O)O)cc3)cc2)NC(=O)[C@H](Cc2cccc(C(N)=O)c2)NC(=O)CSC[C@@H](C(=O)NCC(N)=O)NC(=O)[C@H](CC(C)C)NC(=O)[C@H](Cc2cnc[nH]2)NC(=O)[C@H](C(C)C)NC(=O)[C@@H]2CCCN2C1=O [Example 632] ({CH2CO}-[Phe(3-CONH2)][Bip(4'-COOH)][X56][Sar]HD[dR]IPVHLCG-NH2; thioether N-13)	50 to 200 nM
CC[C@H](C)[C@@H]1NC(=O)[C@@H](CCCNC(=N)NCc2cccc(O)c2)NC(=O)[C@H](CC(=O)O)NC(=O)[C@H](Cc2cnc[nH]2)NC(=O)CN(C)C(=O)[C@H](Cc2ccc(-c3ccc(NC(=O)c4cccc(OCC(=O)O)c4)cc3)cc2)NC(=O)[C@H](Cc2ccc(-c3ccc(C(=O)O)cc3)cc2)NC(=O)[C@H](CC2CCCCC2)NC(=O)CSC[C@@H](C(=O)NCC(N)=O)NC(=O)[C@H](CC(C)C)NC(=O)[C@H](Cc2ncc[nH]2)NC(=O)[C@H](C(C)C)NC(=O)[C@@H]2Cc3ccccc3CN2C1=O [Example 564] ({CH2CO}-[Cha][Bip(4'-COOH)][Bip(4'-NH)](Benzoyl(3-OCH2COOH))[Sar]HD[dArg(ω-(3-HO-benzyl))]I[Tic]V[Ala(imidazol-2-yl)]LCG-NH2; thioether N-13)	< 50 nM

From patent US20250145665A1, “MACROCYCLIC PEPTIDES USEFUL AS MODULATORS OF TNF ALPHA” (Bristol-Myers Squibb Company, priority 2023, published 2025)
